Laboratory results reported in EP2017264A1, “Substituted phenyl propargyl compounds, method for their manufacture and their use as herbicides and plant growth regulators” (BAYER CROPSCIENCE AG, priority 2007, dated 2009).

Columns and labels:
[1] = system: Echinochloa crus-galli, Setaria viridis, Abuthilon theophrasti, Amaranthus retroflexus und Veronica persica; test: Post-emergence weed control, greenhouse pot test; format: in vivo; details: three-leaf stage, Aufwandmenge von 1,28 kg und weniger Aktivsubstanz pro Hektar, visual rating after ca. 3 bis 4 Wochen vs untreated controls
Excerpt: Samen bzw. Rhizomstücke von mono- und dikotylen Unkräutern wurden in Plastiktöpfen in sandigem Lehmboden ausgelegt, mit Erde abgedeckt und im Gewächshaus unter guten Wachstumsbedingungen angezogen. Drei Wochen nach der Aussaat wurden die Versuchspflanzen im Dreiblattstadium behandelt. Die als Spritzpulver bzw. als Emulsionskonzentrate formulierten erfindungsgemäßen Verbindungen wurden in verschiedenen Dosierungen mit einer Wasseraufwandmenge von umgerechnet 600 bis 800 I/ha auf die grünen Pflanzenteile gesprüht. Nach ca. 3 bis 4 Wochen Standzeit der Versuchspflanzen im Gewächshaus unter optimalen Wachstumsbedingungen wurde die Wirkung der Präparate optisch im Vergleich zu unbehandelten Kontrollen bonitiert. Die erfindungsgemäßen Mittel wiesen auch im Nachauflauf eine gute herbizide Wirksamkeit gegen ein breites Spektrum wirtschaftlich wichtiger Ungräser und Unkräuter auf. Beispielsweise zeigten die Beispiele Nr.

[2] = system: Echinochloa crus-galli, Setaria viridis, Stellaria media und Veronica persica; test: Pre-emergence weed control, greenhouse pot test; format: in vivo; details: Aufwandmenge von 1,28 kg oder weniger Aktivsubstanz pro Hektar, visual rating after 3 bis 4 Wochen vs untreated controls
Excerpt: Samen bzw. Rhizomstücke von mono- und dikotylen Unkrautpflanzen wurden in Plastiktöpfen in sandiger Lehmerde ausgelegt und mit Erde abgedeckt. Die in Form von benetzbaren Pulvern oder Emulsionskonzentraten formulierten erfindungsgemäßen Verbindungen wurden dann als wäßrige Suspension bzw. Emulsion mit einer Wasseraufwandmenge von umgerechnet 600 bis 800 l/ha in unterschiedlichen Dosierungen auf die Oberfläche der Abdeckerde appliziert.
Nach der Behandlung wurden die Töpfe im Gewächshaus aufgestellt und unter guten Wachstumsbedingungen für die Unkräuter gehalten. Die optische Bonitur der Pflanzen- bzw. Auflaufschäden erfolgte nach dem Auflaufen der Versuchspflanzen nach einer Versuchszeit von 3 bis 4 Wochen im Vergleich zu unbehandelten Kontrollen. Wie die Testergebnisse zeigten, wiesen die erfindungsgemäßen Verbindungen eine gute herbizide Vorauflaufwirksamkeit gegen ein breites Spektrum von Ungräsern und Unkräutern auf.

[3] = physchem

SMILES	herbizide Wirkung gegen Schadpflanzen im Nachauflaufverfahren [1]	herbizide Wirkung gegen Schadpflanzen im Vorauflaufverfahren [2]	chromatographic logP [3]
COc1ccccc1C=NOC(C)C#Cc1cccc(SC)c1 (centres unmarked) [Beispiel 1.301]	sehr gute herbizide Wirkung	sehr gute herbizide Wirkung	4.85
Cc1cccc(C=NOC(C)C#Cc2cccc([S+](C)[O-])c2)n1 (centres unmarked) [Beispiel 3.086]	sehr gute herbizide Wirkung	sehr gute herbizide Wirkung	1.57
COc1nc(Cl)cnc1C=NOCC#Cc1cccc([S+](C)[O-])c1 (centres unmarked) [Beispiel 4.106]	–	–	2.21
COc1ncc(C=NOCC#Cc2cccc(SC)c2)cc1F [Beispiel 5.040]	sehr gute herbizide Wirkung	sehr gute herbizide Wirkung	4.23
COc1ncc(C=NOCC#Cc2cccc([S+](C)[O-])c2)cc1F (centres unmarked) [Beispiel 5.041]	sehr gute herbizide Wirkung	sehr gute herbizide Wirkung	2.28
COc1ncc(C=NOCC#Cc2cccc(CC#N)c2)cc1F [Beispiel 5.044]	–	–	3.24
COc1ccc(C=NOCC#Cc2cccc(SC)c2)cn1 [Beispiel 5.120]	sehr gute herbizide Wirkung	sehr gute herbizide Wirkung	4
COc1ccc(C=NOCC#Cc2cccc(S(C)(=O)=O)c2)cn1 [Beispiel 5.122]	–	–	2.5
COc1ccc(C=NOCC#Cc2ccc(F)c(SC)c2)cn1 [Beispiel 5.125]	–	–	2.94
COc1ccc(C=NOCC#Cc2ccc(C#N)c(SC)c2)cn1 [Beispiel 5.126]	–	–	3.49
CCSc1cccc(C#CCON=Cc2ccc(OC)nc2)c1 [Beispiel 5.127]	–	–	4.34
CCSc1cc(C#CCON=Cc2ccc(OC)nc2)ccc1OC [Beispiel 5.131]	–	–	4.03
CC[S+]([O-])c1cc(C#CCON=Cc2ccc(OC)nc2)ccc1OC (centres unmarked) [Beispiel 5.132]	–	–	2.42
CCSc1cc(C#CCON=Cc2ccc(OC)nc2)ccc1C [Beispiel 5.133]	–	–	4.9
CC[S+]([O-])c1cc(C#CCON=Cc2ccc(OC)nc2)ccc1C (centres unmarked) [Beispiel 5.134]	–	–	2.51
COc1ccc(C=NOCC#Cc2cccc(OC(F)(F)F)c2)cn1 [Beispiel 5.135]	–	–	4.26
COc1ccc(C=NOCC#Cc2cccc(SC(C)C)c2)cn1 [Beispiel 5.136]	–	–	4.8
C=CCSc1cccc(C#CCON=Cc2ccc(OC)nc2)c1 [Beispiel 5.137]	–	–	4.72
COc1ccc(C=NOCC#Cc2ccc(OC)c(SC)c2)cn1 [Beispiel 5.138]	–	–	3.83
COc1ccc(C=NOCC#Cc2ccc(F)c(SC)c2F)cn1 [Beispiel 5.139]	–	–	4.1
COc1ccc(C=NOCC#Cc2ccc(F)c([S+](C)[O-])c2F)cn1 (centres unmarked) [Beispiel 5.140]	–	–	2.17
COc1ccc(C=NOCC#Cc2ccc(F)c(F)c2)cn1 [Beispiel 5.141]	–	–	3.83
COc1ccc(C=NOCC#Cc2cc(C)c(F)c(SC)c2)cn1 [Beispiel 5.142]	–	–	4.54
COc1ccc(C=NOCC#Cc2ccccc2SC)cn1 [Beispiel 5.143]	–	–	3.79
COc1ccc(C=NOCC#Cc2cc(C)c(F)c([S+](C)[O-])c2)cn1 (centres unmarked) [Beispiel 5.144]	–	–	2.76
COc1ccc(C=NOCC#Cc2ccccc2[S+](C)[O-])cn1 (centres unmarked) [Beispiel 5.145]	–	–	2.19
COc1ccc(C=NOCC#Cc2ccc(F)c(F)c2SC)cn1 [Beispiel 5.146]	–	–	4.11

SMILES	herbizide Wirkung gegen Schadpflanzen im Nachauflaufverfahren [1]	herbizide Wirkung gegen Schadpflanzen im Vorauflaufverfahren [2]	chromatographic logP [3]
COc1ccc(C=NOCC#Cc2ccc(F)c(F)c2[S+](C)[O-])cn1 (centres unmarked) [Beispiel 5.147]	–	–	2.17
COc1ccc(C=NOCC#Cc2cc(SC)c(F)c(SC)c2)cn1 [Beispiel 5.148]	–	–	4.57
COc1ncccc1C=NOCC#Cc1ccc(C)c([S+](C)[O-])c1 (centres unmarked) [Beispiel 5.168]	–	–	2.42
Cc1ccc(C#CCON=Cc2cccnc2)cc1[S+](C)[O-] (centres unmarked) [Beispiel 5.170]	–	–	1.37
CCOc1ncccc1C=NOCC#Cc1ccc(C)c([S+](C)[O-])c1 (centres unmarked) [Beispiel 5.171]	–	–	2.83
CSc1cccc(C#CCON=Cc2ccc(OC(C)C)nc2)c1 [Beispiel 5.177]	sehr gute herbizide Wirkung	sehr gute herbizide Wirkung	4.87
CC(C)Oc1ccc(C=NOCC#Cc2cccc(CC#N)c2)cn1 [Beispiel 5.178]	–	–	3.69
CC(C)Oc1ccc(C=NOCC#Cc2cccc([S+](C)[O-])c2)cn1 (centres unmarked) [Beispiel 5.181]	sehr gute herbizide Wirkung	sehr gute herbizide Wirkung	2.77
COc1ccc(C=NOCC#Cc2cccc(SC)c2)c(OC)n1 [Beispiel 5.183]	–	–	4.93
COc1ccc(C=NOCC#Cc2cccc(CC#N)c2)c(OC)n1 [Beispiel 5.184]	–	–	3.79
COc1ccc(C=NOCC#Cc2cccc([S+](C)[O-])c2)c(OC)n1 (centres unmarked) [Beispiel 5.185]	sehr gute herbizide Wirkung	–	2.89
CSc1cccc(C#CCON=Cc2ccc(SC)nc2)c1 [Beispiel 5.186]	–	–	4.22
CSc1ccc(C=NOCC#Cc2cccc(CC#N)c2)cn1 [Beispiel 5.187]	–	–	3.18
CSc1ccc(C=NOCC#Cc2cccc([S+](C)[O-])c2)cn1 (centres unmarked) [Beispiel 5.188]	sehr gute herbizide Wirkung	–	2.23
CCOc1ccc(C=NOCC#Cc2cccc([S+](C)[O-])c2)cn1 (centres unmarked) [Beispiel 5.189]	sehr gute herbizide Wirkung	sehr gute herbizide Wirkung	2.42
CCOc1ccc(C=NOCC#Cc2cccc(SC)c2)cn1 [Beispiel 5.190]	sehr gute herbizide Wirkung	sehr gute herbizide Wirkung	4.42
CSc1cccc(C#CCON=Cc2ccc(OCC(F)(F)F)nc2OCC(F)(F)F)c1 [Beispiel 5.191]	–	–	5.08
N#CCc1cccc(C#CCON=Cc2ccc(OCC(F)(F)F)nc2OCC(F)(F)F)c1 [Beispiel 5.192]	–	–	4.03
C[S+]([O-])c1cccc(C#CCON=Cc2ccc(OCC(F)(F)F)nc2OCC(F)(F)F)c1 (centres unmarked) [Beispiel 5.193]	–	–	3.4
CSc1cccc(C#CCON=Cc2ccc(C3CCCC3)nc2)c1 [Beispiel 5.194]	–	–	5.44
N#CCc1cccc(C#CCON=Cc2ccc(C3CCCC3)nc2)c1 [Beispiel 5.195]	–	–	4.27
C[S+]([O-])c1cccc(C#CCON=Cc2ccc(C3CCCC3)nc2)c1 (centres unmarked) [Beispiel 5.196]	–	–	3.43
COc1ncc(C=NOCC#Cc2cccc(SC)c2)cc1Br [Beispiel 5.197]	–	–	4.81
COc1ncc(C=NOCC#Cc2cc(SC)c(F)c(SC)c2)cc1F [Beispiel 5.198]	–	–	4.65
CCOc1ncc(C=NOCC#Cc2cccc(SC)c2)cc1F [Beispiel 5.199]	–	–	4.68
CS(=O)(=O)c1ccc(C=NOCC#Cc2cccc(CC#N)c2)cn1 [Beispiel 5.200]	–	–	2.18
COc1ccccc1-c1ccn(CC#Cc2cccc(SC)c2)n1 [Beispiel 6.050]	–	–	3.43
